Measured values reported in patent US20240148821A1, “PHARMACEUTICAL USE OF CYCLIC PEPTIDE COMPOUND” (CHUGAI SEIYAKU KABUSHIKI KAISHA, priority 2021, published 2024).
pIC50: −log10 of the molar value. Numbered stars: 1 amine (or outer) side, 2 acyl side, 3 side chain; on linkers, the order of the positions; unused ones are H or OH. Bridge positions count the residues as written; N and C are the ends. Square brackets hold non-standard residues; d marks the D form. Peptide text beside a SMILES is read from it. * marks the point of attachment. hPhe(3-Cl-4-CF3) = N[C@@H](CCc1ccc(C(F)(F)F)c(Cl)c1)C(=O)O; Phe(4-CF3) = N[C@@H](Cc1ccc(C(F)(F)F)cc1)C(=O)O; NMePhe(4-Cl) = CN[C@@H](Cc1ccc(Cl)cc1)C(=O)O; NMePhe(2-CN) = CN[C@@H](Cc1ccccc1C#N)C(=O)O; NMePhe(4-Me) = CN[C@@H](Cc1ccc(C)cc1)C(=O)O; NMedβ3hAla = C[C@H](CC(=O)[*:2])N(C)[*:1]; Phe(4-Cl) = N[C@@H](Cc1ccc(Cl)cc1)C(=O)O; Phe(3-I) = N[C@@H](Cc1cccc(I)c1)C(=O)O; X67 = O=C([C@@H]1CCC[C@H]1N[*:1])[*:2]; NMeAla(cPr) = CN[C@@H](CC1CC1)C(=O)O; Phe(2-Me) = Cc1ccccc1C[C@H](N)C(=O)O; NMeCha = CN[C@@H](CC1CCCCC1)C(=O)O; Gly(N-(CH2)2OEt) = CCOCCNCC(=O)O; NMeD = CN[C@@H](CC(=O)O)C(=O)O; NMeL = CN[C@@H](CC(C)C)C(=O)O; NMeV = CN[C@H](C(=O)O)C(C)C; d(β3hA) = C[C@@H](N)CC(=O)O; Pip = O=C(O)[C@@H]1CCCCN1; NMeAib = CNC(C)(C)C(=O)O; Nle = CCCC[C@H](N)C(=O)O; Piperidide = C1CCN(*)CC1; Ac5c = NC1(C(=O)O)CCCC1; Aze = O=C(O)[C@@H]1CCN1; Sar = CNCC(=O)O

Each compound was assayed on Human pancreatic cancer cell line AsPC-1 (G12D mutation Kras) (assay: AsPC-1 cell growth inhibition (AsPC-1 CGI)). Conditions: read-out: AsPC-1 cell growth inhibition, 50% growth inhibitory concentration (IC50 value); 96 hours, CellTiter-Glo, values classified in ranges.
Format: cell-based
Experimental: Test compounds were serially dilated with dimethyl sulfoxide, and 200 nL was then dispensed to a U-bottom 96-well plate using Labcyte Echo. […] The cell suspension was dispensed to a. plate containing a test compound at 100 μL per well and incubated at 37° C. in a 5% carbon dioxide gas incubator. 96 hours later, 80 μL of CellTiter-Glo (Promega) was added to each well and fluorescence was measured.
Work on CC[C@H](C)[C@@H]1NC(=O)[C@H](CC(C)C)N(C)C(=O)C[C@@H](C(=O)N2CCCCC2)N(C)C(=O)[C@H](CC(C)C)NC(=O)C(C)(C)N(C)C(=O)[C@H](Cc2ccc(OC)cc2)NC(=O)[C@H](Cc2cccc(I)c2)NC(=O)CN(C)C(=O)[C@H](CC2CCCCC2)N(C)C(=O)CN(C)C(=O)CN(C)C1=O [Compound 320] ([NMeL]I[Sar][Sar][NMeCha][Sar][Phe(3-I)]Y(Me)[NMeAib]L[NMeD]-Piperidide; lactam N-11) yielded a pIC50 of less than 6.30. Work on CC[C@H](C)[C@@H]1NC(=O)[C@H](CC(C)C)N(C)C(=O)C[C@@H](C(=O)N2CCCCC2)N(C)C(=O)[C@H](C(C)C)N(C)C(=O)C2(CCCC2)NC(=O)[C@@H]2CCCN2C(=O)[C@H](CCc2ccc(C(F)(F)F)c(Cl)c2)NC(=O)CN(C)C(=O)[C@H](CC2CC2)N(C)C(=O)CN(C)C(=O)CN(C)C1=O [Compound 325] ([NMeL]I[Sar][Sar][NMeAla(cPr)][Sar][hPhe(3-Cl-4-CF3)]P[Ac5c][NMeV][NMeD]-Piperidide; lactam N-11) yielded a pIC50 of less than 6.30. For CCOCCN1CC(=O)N(C)CC(=O)N(C)[C@@H](CC2CCCCC2)C(=O)N(C)CC(=O)N[C@@H](CCc2ccc(C(F)(F)F)c(Cl)c2)C(=O)N2CCC[C@H]2C(=O)NC2(CCCC2)C(=O)N(C)[C@@H](C(C)C)C(=O)N[C@H](C)CC(=O)N(C)[C@@H](CC(C)C)C(=O)N[C@@H]([C@@H](C)CC)C1=O [Compound 329] (cyclo([Ac5c][NMeV][d(β3hA)][NMeL]I[Gly(N-(CH2)2OEt)][Sar][NMeCha][Sar][hPhe(3-Cl-4-CF3)]P)), the pIC50 was less than 6.30. Work on CC[C@H](C)[C@@H]1NC(=O)[C@H](CC(C)C)N(C)C(=O)C[C@@H](C(=O)N2CCCCC2)N(C)C(=O)[C@H](CC(C)C)NC(=O)C(C)(C)N(C)C(=O)[C@H](Cc2ccc(Cl)cc2)NC(=O)[C@H](Cc2cccc(I)c2)NC(=O)CN(C)C(=O)[C@H](CC2CCCCC2)N(C)C(=O)CN(C)C(=O)CN(C)C1=O [Compound 330] ([NMeL]I[Sar][Sar][NMeCha][Sar][Phe(3-I)][Phe(4-Cl)][NMeAib]L[NMeD]-Piperidide; lactam N-11) yielded a pIC50 of less than 6.30. In the case of CC[C@H](C)[C@@H]1NC(=O)[C@H](CC(C)C)N(C)C(=O)C[C@@H](C(=O)N2CCCCC2)N(C)C(=O)[C@H](CC(C)C)NC(=O)C(C)(C)N(C)C(=O)[C@H](Cc2ccccc2C)NC(=O)[C@H](Cc2cccc(I)c2)NC(=O)CN(C)C(=O)[C@H](Cc2ccc(C)cc2)N(C)C(=O)[C@@H]2CCN2C(=O)CN(C)C1=O [Compound 335] ([NMeL]I[Sar][Aze][NMePhe(4-Me)][Sar][Phe(3-I)][Phe(2-Me)][NMeAib]L[NMeD]-Piperidide; lactam N-11), the pIC50 was less than 6.30. Compound CC[C@H](C)[C@@H]1NC(=O)[C@H](CC(C)C)N(C)C(=O)C[C@@H](C(=O)N2CCCCC2)N(C)C(=O)[C@H](CC(C)C)NC(=O)C(C)(C)N(C)C(=O)[C@H](Cc2ccc(C(F)(F)F)cc2)NC(=O)[C@H](Cc2cccc(I)c2)NC(=O)CN(C)C(=O)[C@H](CC2CCCCC2)N(C)C(=O)CN(C)C(=O)CN(C)C1=O [Compound 336] ([NMeL]I[Sar][Sar][NMeCha][Sar][Phe(3-I)][Phe(4-CF3)][NMeAib]L[NMeD]-Piperidide; lactam N-11) has a pIC50 of less than 6.30. CC[C@H](C)[C@@H]1NC(=O)[C@H](CC(C)C)N(C)C(=O)[C@@H]2CCC[C@H]2NC(=O)[C@H](C(C)C)N(C)C(=O)C2(CCCC2)NC(=O)[C@@H]2CCCN2C(=O)[C@H](CCc2ccc(C(F)(F)F)c(Cl)c2)NC(=O)CN(C)C(=O)[C@H](CC2CCCCC2)N(C)C(=O)CN(C)C(=O)CN(C)C1=O [Compound 347] (cyclo([Ac5c][NMeV][X67][NMeL]I[Sar][Sar][NMeCha][Sar][hPhe(3-Cl-4-CF3)]P)) was tested, and the pIC50 was less than 6.30. CCCC[C@@H]1NC(=O)[C@H](CCc2ccc(C(F)(F)F)c(Cl)c2)NC(=O)CN(C)C(=O)[C@H](Cc2ccc(Cl)cc2)N(C)C(=O)[C@@H]2CCN2C(=O)CN(C)C(=O)[C@H]([C@@H](C)CC)NC(=O)[C@@H]2CCCCN2C(=O)C[C@@H](C(=O)N2CCCCC2)N(C)C(=O)[C@H](CC(C)C)NC(=O)C(C)(C)N(C)C1=O [Compound 352] ([Pip]I[Sar][Aze][NMePhe(4-Cl)][Sar][hPhe(3-Cl-4-CF3)][Nle][NMeAib]L[NMeD]-Piperidide; lactam N-11) showed a pIC50 of less than 6.30. Work on CC[C@H](C)[C@@H]1NC(=O)[C@H](CC(C)C)N(C)C(=O)C[C@@H](C)N(C)C(=O)[C@H](C(C)C)N(C)C(=O)C2(CCCC2)NC(=O)[C@@H]2CCCN2C(=O)[C@H](CCc2ccc(C(F)(F)F)c(Cl)c2)NC(=O)CN(C)C(=O)[C@H](Cc2ccccc2C#N)N(C)C(=O)CN(C)C(=O)CN(C)C1=O [Compound 357] (cyclo([Ac5c][NMeV][NMedβ3hAla][NMeL]I[Sar][Sar][NMePhe(2-CN)][Sar][hPhe(3-Cl-4-CF3)]P)) yielded a pIC50 of less than 6.30.
